Measured values from US7411069B2 (Hypnion, Inc., priority 2003, dated 2008).
Where two headings read alike, the source gives them in different places.

Tests used:
M2 muscarinic receptor = target: T1, M2 muscarinic receptor (Homo sapiens, UniProt P08172); assay: M2 binding assay ([3H]-scopolamine, N-methyl chloride displacement)
T1 construct: purchased PerkinElmer, Inc., Wellesley, Mass; host or cells: CHO cells
T1 sequence (P08172 1-466): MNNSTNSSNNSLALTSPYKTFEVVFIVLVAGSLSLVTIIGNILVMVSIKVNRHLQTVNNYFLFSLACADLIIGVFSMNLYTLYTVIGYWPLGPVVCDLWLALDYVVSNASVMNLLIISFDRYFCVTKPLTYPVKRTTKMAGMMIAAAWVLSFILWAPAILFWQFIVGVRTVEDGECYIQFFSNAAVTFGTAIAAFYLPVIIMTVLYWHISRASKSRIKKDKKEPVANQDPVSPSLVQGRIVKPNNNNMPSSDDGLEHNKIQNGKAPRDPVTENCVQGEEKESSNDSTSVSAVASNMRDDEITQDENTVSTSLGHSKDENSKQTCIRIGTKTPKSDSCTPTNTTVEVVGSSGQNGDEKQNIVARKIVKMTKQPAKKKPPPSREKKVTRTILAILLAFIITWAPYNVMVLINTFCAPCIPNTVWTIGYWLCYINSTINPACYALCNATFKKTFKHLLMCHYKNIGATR

H1 histamine receptor = target: T2, H1 histamine receptor (Bos taurus, UniProt P30546); conditions: reference compounds; unit inferred; read-out: Ki, H1 binding assay reference compounds; cited from earlier work
T2 construct: the receptors were obtained from bovine cerebellar membrane tissue; from tissue; host or cells: bovine cerebellar membranes

male Wistar rats [1] = type: in vivo; conditions: oral
Description: The Irwin screen can provide useful information on potential side effects of compounds on general physiological and behavioural functions. The screen was conducted by administering the test compounds orally in 0.25% aqueous methylcellulose using male Wistar rats, a frequently used species in such studies and for which background data are readily available.
The Irwin screen tests for numerous parameters in animals that have been administered the test compound. For example, the screen can include: in-cage effects, e.g., dispersion, respiratory rate, locomotor activity, restlessness, fighting, alertness, apathy, and exophthalmus; in-arena effects, e.g., transfer arousal, spatial locomotion, ptosis, startle, tail elevation, piloerection, touch escape, positional passivity, catalepsy, tighting reflex, visual placing, grip strength, pinna, corneal, pain response, and wire manoeuvre; parameters observed in handling, e.g., cyanosis, cutaneous blood flow, hypothermia, body tone, pupil size, light-pupil response, lacrimation, grooming, red staining, salivation, and provoked biting; general scores e.g., fearfulness, irritability, abnormal gait, abnormal body carriage, tremors, twitches, convulsions, bizarre behaviour, writhing, vocalisation, diarrhoea, number of defaecations, number of urinations, moribund, lethality, and abnormalities detected. Further details can be found in Irwin, S; Comprehensive observational assessment: I a. A systematic, quantitative procedure for assessing the behavioural and physiological state of the mouse. […]

hERG channel = hERG channel (Homo sapiens, UniProt Q12809)
male Wistar rats [2] = assay: SCORE-2000 sleep-wakefulness, locomotor activity and body temperature monitoring; conditions: oral, CT-18
M3 muscarinic receptor = target: T3, M3 muscarinic receptor (Homo sapiens, UniProt P20309); assay: M3 binding assay ([3H]-scopolamine, N-methyl chloride displacement)
T3 construct: purchased PerkinElmer, Inc., Wellesley, Mass; host or cells: CHO cells

M1 muscarinic receptor = target: T4, M1 muscarinic receptor (Homo sapiens, UniProt P11229); assay: M1 binding assay ([3H]-scopolamine, N-methyl chloride displacement)
T4 construct: purchased PerkinElmer, Inc., Wellesley, Mass; host or cells: CHO cells
T4 sequence (P11229 1-460): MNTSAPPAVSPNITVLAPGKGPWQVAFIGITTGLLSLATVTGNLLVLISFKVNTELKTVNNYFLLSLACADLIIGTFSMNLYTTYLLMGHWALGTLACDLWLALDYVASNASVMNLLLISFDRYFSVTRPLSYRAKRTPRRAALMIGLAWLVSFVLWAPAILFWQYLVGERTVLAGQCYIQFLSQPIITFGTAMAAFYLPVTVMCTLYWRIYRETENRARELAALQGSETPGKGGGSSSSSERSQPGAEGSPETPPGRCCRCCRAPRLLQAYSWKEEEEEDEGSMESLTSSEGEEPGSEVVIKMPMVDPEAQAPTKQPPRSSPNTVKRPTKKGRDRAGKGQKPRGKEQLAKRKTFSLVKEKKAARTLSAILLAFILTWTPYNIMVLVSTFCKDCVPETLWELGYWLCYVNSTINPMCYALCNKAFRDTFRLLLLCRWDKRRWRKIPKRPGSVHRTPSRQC

Crl:CD(SD)IGS BR rats = assay: 14-Day rat study with recovery; type: in vivo
Description: The purpose of this study was to evaluate the toxicity of HY2901 when administered via oral gavage to rats for at least 14 days and to assess the reversibility, persistence, or delayed occurrence of any effects after a recovery period of up to 14 days.
Male and female Crl:CD®(SD)IGS BR rats were assigned to seven groups, four main study groups and three groups for toxicokinetics. Each group received dose preparations containing 0.25% methylcellulose, 400 cps in 200 mM acetate buffer, or 10, 30, or 150 mg of test article/kg of body weight (mg/kg/day) at a dose volume of 5 mL/kg.
Assessment of toxicity was based on mortality, clinical and ophthalmic observations, body weights, food consumption, clinical pathology, organ weights, and macroscopic and microscopic findings. Blood samples were collected for toxicokinetic evaluation.

Crl: CD(SD)IGS BR rats = assay: Acute rat study (toxicity and MTD, oral gavage); type: in vivo
Description: The purpose of this study was to evaluate the toxicity and maximum tolerated dose (MTD) of the test articles when given via oral gavage to rats. Male Crl: CD®(SD)IGS BR rats (3/group) were assigned to 5 groups. At initiation of dosing, animals were approximately 7 weeks old with body weights ranging from 172 to 206 g. Each group received either 50, 100, 150, 200, or 250 mg/kg of HY2901 once daily for 5 days. All surviving animals were sacrificed on Day 6. Assessment of toxicity was based on mortality, clinical observations, and body weight data.

[3] = Excretion in urine of animal species; type: in vivo
telemetered Beagle dogs = assay: ECG and arterial blood pressure in telemetered Beagle dogs; type: in vivo, dog
Description: To determine if HY2901 could produce any changes in QT interval, the compound was studied in telemetered Beagle dogs. Dogs were implanted with devices to continuously monitor ECG and arterial blood pressure. Dogs (groups of 4) were studied in a Latin square cross-over design, with each dog receiving 3 different doses and a placebo. Two studies were conducted with doses of 0.3, 1, 3, 10, and 30 mg/kg. […] The tachycardia persisted for 6-8 hours postdose at 0.3 and 1 mg/kg. A ceiling effect to the heart rate increase seemed to exist with heart rates peaking at approximately 150-160 in both the 10 and 30 mg/kg dose groups.

[4] = In vitro rate of metabolism in rat hepatocyte cultures; type: in vitro ADME
Description: (§1) Cytochrome P450 inhibition was studied with HY2901 in vitro. […] In addition, the in vitro rate of metabolism in rat, dog, monkey, and human hepatocyte cultures was determined for HY2901.

Pharmacokinetics in rats = type: in vivo, rat; conditions: 3 mg/kg
Description: HY2901 was administered to rats, dogs, and cynomolgus monkeys at a dose of 3 mg/kg orally and intravenously. Plasma samples were collected from all species for pharmacokinetic analysis. […] HY2901 is 75% protein bound in rat plasma and 60% protein bound in human plasma.

[5] = In vitro rate of metabolism in human hepatocyte cultures; type: in vitro ADME
Description: as §1

purebred Beagles [6] = assay: 14-Day dog study with recovery phase; type: in vivo
Description: The toxicity and the toxicokinetics of HY2901 when administered daily via oral gavage (Phase 1) or capsules (Phase 2) to dogs for at least 14 days was determined. The reversibility, persistence, or delayed occurrence of observable effects following a 7-day (Phase 1) or 14-day (Phase 2) recovery period was also assessed. Doses of 3, 10, 30, and 70 mg/kg/day were studied.

purebred Beagles [7] = assay: Acute dog study (toxicity and MTD, escalating oral doses); type: in vivo
[8] = 50-250 mg/kg once daily for 5 days

T3 sequence (P20309 whole entry): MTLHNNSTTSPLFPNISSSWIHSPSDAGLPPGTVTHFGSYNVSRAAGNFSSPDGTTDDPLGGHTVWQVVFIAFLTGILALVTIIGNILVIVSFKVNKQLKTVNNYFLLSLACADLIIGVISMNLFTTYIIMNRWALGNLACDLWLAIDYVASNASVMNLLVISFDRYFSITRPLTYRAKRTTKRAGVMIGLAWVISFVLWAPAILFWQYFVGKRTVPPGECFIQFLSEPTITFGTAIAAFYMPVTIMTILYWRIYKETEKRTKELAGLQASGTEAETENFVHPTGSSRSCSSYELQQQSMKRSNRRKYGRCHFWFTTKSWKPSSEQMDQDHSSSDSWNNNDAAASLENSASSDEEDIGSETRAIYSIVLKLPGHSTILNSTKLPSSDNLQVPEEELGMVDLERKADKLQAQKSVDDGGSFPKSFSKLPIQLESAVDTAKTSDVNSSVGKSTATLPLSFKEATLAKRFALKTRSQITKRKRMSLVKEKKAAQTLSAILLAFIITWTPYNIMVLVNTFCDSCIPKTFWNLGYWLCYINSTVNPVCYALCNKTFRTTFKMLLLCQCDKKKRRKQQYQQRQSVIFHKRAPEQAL
T2 sequence (P30546 whole entry): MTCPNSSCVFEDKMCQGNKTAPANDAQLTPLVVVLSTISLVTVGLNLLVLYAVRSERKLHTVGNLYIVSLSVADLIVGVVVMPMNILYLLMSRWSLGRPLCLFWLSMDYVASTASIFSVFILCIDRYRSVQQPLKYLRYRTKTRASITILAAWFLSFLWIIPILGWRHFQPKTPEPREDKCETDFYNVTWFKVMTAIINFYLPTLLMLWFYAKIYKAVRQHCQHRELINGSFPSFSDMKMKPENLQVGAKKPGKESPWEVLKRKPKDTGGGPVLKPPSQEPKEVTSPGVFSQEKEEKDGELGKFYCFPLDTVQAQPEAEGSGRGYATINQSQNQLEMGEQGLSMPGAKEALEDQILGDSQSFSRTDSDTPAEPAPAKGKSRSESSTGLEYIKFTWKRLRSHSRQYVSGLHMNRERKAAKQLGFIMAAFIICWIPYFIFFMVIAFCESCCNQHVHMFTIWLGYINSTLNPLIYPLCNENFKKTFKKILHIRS
hERG channel, sequence (Q12809 whole entry): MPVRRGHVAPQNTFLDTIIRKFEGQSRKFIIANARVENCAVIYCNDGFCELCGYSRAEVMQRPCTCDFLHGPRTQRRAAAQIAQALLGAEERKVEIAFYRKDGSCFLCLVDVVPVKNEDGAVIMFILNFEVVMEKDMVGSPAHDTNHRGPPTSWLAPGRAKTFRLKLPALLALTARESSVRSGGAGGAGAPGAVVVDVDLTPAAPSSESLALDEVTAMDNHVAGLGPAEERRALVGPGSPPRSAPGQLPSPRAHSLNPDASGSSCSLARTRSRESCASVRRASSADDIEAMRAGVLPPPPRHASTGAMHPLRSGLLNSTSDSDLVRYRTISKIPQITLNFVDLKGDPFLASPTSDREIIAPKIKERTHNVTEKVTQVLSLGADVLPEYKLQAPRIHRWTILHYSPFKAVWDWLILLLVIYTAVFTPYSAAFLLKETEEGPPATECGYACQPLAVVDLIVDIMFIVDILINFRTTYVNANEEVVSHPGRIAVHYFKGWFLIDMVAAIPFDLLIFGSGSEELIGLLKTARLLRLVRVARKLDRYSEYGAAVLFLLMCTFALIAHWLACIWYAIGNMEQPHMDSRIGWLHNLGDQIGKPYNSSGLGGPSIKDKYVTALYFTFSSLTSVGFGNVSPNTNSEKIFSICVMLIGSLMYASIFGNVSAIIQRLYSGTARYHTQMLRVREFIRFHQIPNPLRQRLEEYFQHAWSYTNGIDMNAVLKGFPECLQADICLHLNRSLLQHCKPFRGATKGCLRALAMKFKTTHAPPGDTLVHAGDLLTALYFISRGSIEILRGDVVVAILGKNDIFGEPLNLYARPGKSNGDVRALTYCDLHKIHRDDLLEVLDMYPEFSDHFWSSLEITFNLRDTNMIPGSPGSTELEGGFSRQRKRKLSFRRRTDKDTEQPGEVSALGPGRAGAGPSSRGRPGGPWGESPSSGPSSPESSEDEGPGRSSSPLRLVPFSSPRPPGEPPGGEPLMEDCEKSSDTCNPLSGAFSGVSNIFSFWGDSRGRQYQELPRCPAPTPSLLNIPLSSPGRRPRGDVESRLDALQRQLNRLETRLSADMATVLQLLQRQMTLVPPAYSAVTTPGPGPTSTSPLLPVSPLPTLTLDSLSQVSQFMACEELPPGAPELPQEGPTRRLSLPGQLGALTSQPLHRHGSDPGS

## C[N+]1(C)C2CC(OC(=O)C(CO)c3ccccc3)CC1C1OC12.[Br-] (single isomer, unassigned; (-)) [scopolamine, MethylBr, (−)-scopolamine, methyl-, bromide, reference compound]
M2 muscarinic receptor
  Slope, M2 binding curve: −0.89

## CN(C)CCCSC(=N)N [dimaprit]
H1 histamine receptor
  Ki: > 10 µM

## O=C(O)C1(CCN2CCC(=C3c4ccccc4COc4ccccc43)CC2)CC1 [Compound 70b]
Male Wistar rats [1]; 10 mg/kg dose
  Side effects in Irwin screen: clean
Male Wistar rats [1]; 30 mg/kg dose
  Side effects in Irwin screen: clean
Male Wistar rats [1]; 100 mg/kg dose
  Side effects in Irwin screen: some side effects
hERG channel
  hERG blocking: 50.2%
Male Wistar rats [2]; dose 10 mg/kg
  LUSB: 8.3 min
  NREM: 33.7 min
Male Wistar rats [2]; dose 30 mg/kg
  LUSB: 13.8 min
  NREM: 43.2 min

## CC(C)(CN1CCC(=C2c3ccccc3COc3ccccc32)CC1)C(=O)O [Compound 69a]
M3 muscarinic receptor
  Ki: > 10 µM
M2 muscarinic receptor
  Ki: > 10 µM
M1 muscarinic receptor
  Ki: > 10 µM

## CC(C)(CCN1CCC(=C2c3ccccc3COc3ccccc32)CC1)C(=O)O [Compound 70a]
M3 muscarinic receptor
  Ki: > 10 µM

## CC(C)(CN1CCC(=C2c3ccc(F)cc3COc3ccccc32)CC1)C(=O)O [Compound 49a]
Crl:CD(SD)IGS BR rats; 150 mg/kg/day rats, Week 1
  food consumption: depression in food consumption
Crl:CD(SD)IGS BR rats; 10, 30, 150 mg/kg/day
  unscheduled deaths: largely restricted to the 150 mg/kg/day groups
Crl:CD(SD)IGS BR rats; 10 to 150 mg/kg/day, except Cmax at 150 mg/kg/day on Day 14
  increases in Cmax and AUC(0-t) with dose: greater than dose proportional
Crl:CD(SD)IGS BR rats; any group
  ophthalmic observations: No ophthalmic lesions
Crl: CD(SD)IGS BR rats; [8]
  hypoactivity: observed in all rats
  incidence and duration of ataxia: dose-response relationship was observed
Crl: CD(SD)IGS BR rats; two 250 mg/kg rats
  Day 6 body weights: slightly decreased
[3]
  drug and metabolites in urine: Unchanged HY2901, as well as metabolites, has been found in the urine
Telemetered Beagle dogs; 0.3, 1, 3, 10 and 30 mg/kg, any dose
  changes in QT or corrected QT interval: no changes
Telemetered Beagle dogs; 0.3-30 mg/kg, intravenous or oral
  heart rate effect: dose-related sinus tachycardia
Telemetered Beagle dogs; 0.3 and 1 mg/kg
  persistence of tachycardia postdose: 6 to 8 h
Telemetered Beagle dogs; 10 and 30 mg/kg dose groups
  peak heart rate: 150-160
Telemetered Beagle dogs; higher doses
  persistence of sinus tachycardia: 10 to 12 h
Telemetered Beagle dogs; paralleled the tachycardia
  blood pressure: slight increase
[4]
  metabolism by hepatocytes: extensively metabolized
Pharmacokinetics in rats; all species (rat, dog, cynomolgus monkey)
  absorption after oral administration: rapidly and highly absorbed
Pharmacokinetics in rats; rats, most efficacious dose in the sleep assay
  Peak plasma levels: less than 1.5 mM
[5]
  metabolism by hepatocytes: little metabolism
Purebred Beagles [6]; 3 mg/kg/day, Phase 1
  clinical observations: no treatment-related clinical observations
Purebred Beagles [6]; Beagle, dog, in vivo, 14 days
  survival: survived until scheduled sacrifice
Purebred Beagles [6]; Phase 1 and 2
  clinical pathology data: no evidence in the clinical laboratory data of an effect
Purebred Beagles [6]; Phase 2
  clinical observations: treatment-related head tremors, ataxia, hypoactivity, and excessive salivation
Purebred Beagles [7]; 25 mg/kg
  clinical signs: No clinical signs of toxicity
Purebred Beagles [7]; 40 mg/kg on Day 5
  clinical signs: body tremors, mild to moderate ataxia, excessive salivation and hypoactivity
Purebred Beagles [7]; 50 mg/kg
  clinical signs: Body tremors, mild to severe ataxia, and hypoactivity
Purebred Beagles [7]; 75 mg/kg
  clinical signs: Tremors (entire body, hind limbs, and/or head), mild to moderate ataxia, hypoactivity
Purebred Beagles [7]; dog, in vivo
  effect on body weight: minimal effect
